Where a SMILES comes first, the peptide text is derived from it. The star is where a group is joined. X30 = O=C(CCc1ccc(C(F)(F)F)cc1)*; X21 = O=C(/C=C\c1ccc(Br)cc1)*; Boc = CC(C)(C)OC(=O)*
Biological target: Gastrin/cholecystokinin type B receptor (Cavia porcellus)
Assay: Inhibition of specific binding of [125I]BH-CCK-8 in guinea pig cortex

| Structure (SMILES) | IC50 [µM] |
| --- | --- |
| CC(C)(C)OC(=O)N[C@@H](Cc1c[nH]c2ccccc12)C(=O)N[C@@H](CCCCNC(=O)CCc1ccc(C(F)(F)F)cc1)C(=O)N[C@@H](CC(=O)O)C(=O)N[C@@H](Cc1ccccc1)C(N)=O [3-{2-[2-tert-Butoxycarbonylamino-3-(1H-indol-3-yl)-propionylamino]-6-[3-(4-trifluoromethyl-phenyl)-propionylamino]-hexanoylamino}-N-(1-carbamoyl-2-phenyl-ethyl)-succinamic acid; hydrate] (Boc-WK(X30)DF-NH2) | 19 |
| CC(C)(C)OC(=O)N[C@@H](Cc1c[nH]c2ccccc12)C(=O)N[C@@H](CCCCNC(=O)/C=C\c1ccc(Br)cc1)C(=O)N[C@@H](CC(=O)O)C(=O)N[C@@H](Cc1ccccc1)C(N)=O [3-{6-[3-(4-Bromo-phenyl)-acryloylamino]-2-[2-tert-butoxycarbonylamino-3-(1H-indol-3-yl)-propionylamino]-hexanoylamino}-N-(1-carbamoyl-2-phenyl-ethyl)-succinamic acid; hydrate.NH4OH] (Boc-WK(X21)DF-NH2) | 5.1 |

Source: BindingDB's records for doi:10.1021/jm00089a010 (Abbott Laboratories, 1992)
